Data: publication PMC10920327, “Prediction of anticancer peptides derived from the true lectins of Phoenix dactylifera and their synergetic effect with mitotane” (Frontiers in Pharmacology, 2024)
Like-named read-outs stand apart in the source and are kept apart here. No end group written: not given here.

Columns and labels:
MCF-7 [1] = details: MTT, 48 h; for % of cell viability of MCF-7, mitotane alone: mitotane 25 µg/mL alone
Procedure: (§1) Selected human cell lines were cultured in DMEM media with 10% fetal bovine serum (FBS) at 37°C in a CO2 incubator. After 70%–90% confluence, 5 mL of 0.25% trypsin is injected to separate the cells. The cells were counted using trypan blue, and the cell concentration was set at 10^5/mL. A 96-well plate was filled with 100 mL in each well, and the plate was then incubated for 24 h.
(§2) In this study the media in each well was replaced to contain media containing peptides in varying concentrations (U1, U2, U3, U4, U5, U6, U7, U8, and U9). […] Mitotane concentrations ranged from 20 to 600 µM. U3 and U7 were combined with mitotane using two different preparation techniques. Various concentrations of U3 or U7 (40–1500 µM) and mitotane (20–600 µM) were serially diluted. serial dilution of mitotane concentration with 500 µg/mL of U3 or U7 at a fixed concentration Each concentration was repeated four times.

T47D = experiment: MTT cell viability assay, T47D; type: cell-based, human; details: Table 3, 48 h, peptide alone
Procedure: MCF-7, T47D (breast cancer), and HepG2 (liver cancer) were donated by the Tissue Culture Unit, Department of Biochemistry, Faculty of Science, King Abdulaziz University. Selected human cell lines were cultured in DMEM media with 10% fetal bovine serum (FBS) at 37°C in a CO2 incubator. After 70%–90% confluence, 5 mL of 0.25% trypsin is injected to separate the cells. The cells were counted using trypan blue, and the cell concentration was set at 10^5/mL. A 96-well plate was filled with […] in each well, and the plate was then incubated for 24 h.
Mitotane, marketed as Lysodren, functions as a steroidogenesis inhibitor and cytostatic antineoplastic drug. It is employed for treating adrenocortical carcinoma and Cushing’s syndrome ([Lo Iacono et al., 2021]). In this study the media in each well was replaced to contain media containing peptides in varying concentrations (U1, U2, U3, U4, U5, U6, U7, U8, and U9). U3 and U7, which have the lowest IC50 values, were chosen to be combined with mitotane. Mitotane concentrations ranged from 20 to 600 µM. U3 and U7 were combined with mitotane using two different preparation techniques. Various concentrations of U3 or U7 (40–1500 µM) and mitotane (20–600 µM) were serially diluted. serial dilution of mitotane concentration with 500 µg/mL of U3 or U7 at a fixed concentration Each concentration was repeated four times.
After 48 h of incubation at 37°C, 100 µL of the 0.5 mg/mL MTT was changed with media containing the medication. At 37°C in the dark, the 96-well plate was incubated for 4 h. After removing the MTT and replacing it with 100 µL of DMSO, the plate was allowed to rest for 15 min. The absorbance of each well in 96 well plate was read at wave length 595 nm by ELISA reader (Bio-RAD microplate reader, Japan).
The treated cells viability and IC50 were expressed as the mean ± standard deviation (SD). The percentage viability was calculated by multiplying the absorbance of treated cells by 100 and dividing the absorbance of untreated cells. The software GraphPad Prism (version 9.0, San Diego, CA, United States) was conducted to calculate the IC50 of peptides, mitotane and their combination.

HepG2 [2] = details: for IC50 / % of cell viability of HepG2, mitotane alone: 48 h; for % of cell viability of HepG2, mitotane alone: mitotane 25 µg/mL (80 µM) alone, MTT, 80 µM
Procedure: as §1, §2

MCF-7 [3] = experiment: cells; details: Homo sapiens, MCF7, read-out: IC50 value against MCF-7, single agent
Procedure: as §1, §2

HepG2 [4] = experiment: cells; details: Homo sapiens, HepG2, read-out: IC50 value against HepG2, single agent
Procedure: as §1, §2

[5] = read-out: IC50 range against MCF-7, Table 3, peptide alone, range from GraphPad fit
[6] = read-out: IC50 value against MCF-7, Table 3, peptide alone, mean ± SD, n = 3
[7] = mean ± SD, n = 3, read-out: IC50 value against T47D
[8] = range from GraphPad fit, read-out: IC50 range against T47D
[9] = read-out: IC50 value against MCF-7, single agent, Table 4/Figure 2, U3, U7 40–1500 µM or mitotane alone, mean ± SD, n = 3

Row | Molecule | IC50 (MCF-7 [1]; [5]) | IC50 (MCF-7 [1]; [6]) | IC50 (T47D; [7]) | IC50 (T47D; [8]) | IC50 (HepG2 [2]) | IC50 (MCF-7 [1]; [9]) | IC50 (MCF-7 [3]) | % of cell viability of HepG2, mitotane alone (HepG2 [2]) | % of cell viability of HepG2, mitotane alone (HepG2 [2]; listed as mitotane) | HepG2 IC50 fold lower than MCF-7 (HepG2 [2]; mitotane alone, HepG2 versus MCF-7) | % of cell viability of MCF-7, mitotane alone (MCF-7 [1]) | % of cell viability of MCF-7, mitotane alone (MCF-7 [1]; listed as mitotane) | IC50 (HepG2 [4])
1 | DEEENTHISTR [Peptide U5] | 549 to 1090 µM | 773 ± 44.5 µM | 1260 ± 62.5 µM | 866 to 1830 µM |  |  |  |  |  |  |  |  | 
2 | SSQGYGSSPSPTPR [Peptide U1] | 1010 to 2260 µM | 1510 ± 71.7 µM | 599 ± 20.4 µM | 458 to 784 µM |  |  |  |  |  |  |  |  | 
3 | NCSIHGDIPAY [Peptide U7] | 266 to 458 µM | 349 ± 25.3 µM | 584 ± 30 µM | 485 to 703 µM | 524 ± 35.8 µM | 554 ± 44.4 µM |  |  |  |  |  |  | 
4 | NEEENTHISTR [Peptide U4] | 261 to 338 µM | 297 ± 19.7 µM | 872 ± 23.4 µM | 723 to 1050 µM |  |  |  |  |  |  |  |  | 
5 | NGSIPATWASL [Peptide U3] | 373 to 617 µM | 480 ± 55 µM | 518 ± 34.9 µM | 435 to 616 µM | 561 ± 39.3 µM | 556 ± 43.5 µM |  |  |  |  |  |  | 
6 | NQADSSPSS [Peptide U2] | 451 to 1030 µM | 682 ± 32 µM | 1510 ± 78 µM | 1140 to 1990 µM |  |  |  |  |  |  |  |  | 
7 | HDNTAHPAPDS [Peptide U9] | 351 to 496 µM | 418 ± 15.7 µM | 5460 ± 99.3 µM | 2620 to 11400 µM |  |  |  |  |  |  |  |  | 
8 | Clc1ccc(C(c2ccccc2Cl)C(Cl)Cl)cc1 (centres unmarked) [Mitotane] |  |  |  |  |  |  | 76.3 ± 5.04 µM | 41% | 41.86 ± 4.54% | 2 fold | 59% | 59.05 ± 1.83% | 40.1 ± 4.69 µM
9 | AVGSASPTL [Peptide U6] | 1360 to 2080 µM | 1680 ± 74.3 µM | 5900 ± 119 µM | 2520 to 13800 µM |  |  |  |  |  |  |  |  | 
10 | TFPCSASNK [Peptide U8] | 518 to 792 µM | 641 ± 43.8 µM | 4710 ± 83.6 µM | 1990 to 11100 µM |  |  |  |  |  |  |  |  | 
